From patent publication US8153441B2, “Method for analyzing structure and purity of serotonin transporter imaging agent [123 I] ADAM and precursor SnADAM” (Institute of Nuclear Energy Research Atomic Energy Council, priority 2008, dated 2012)

Columns and labels:
[1] = Solution stability experiment of SnADAM-MeOH solution (HPLC purity after storage at room temperature); format: physicochemical; conditions: for Purity of tested samples: room temperature
Procedure: 15.3 ppm, 153 ppm and 306 ppm SnADAM (test sample)-MeOH solutions were prepared and stored at room temperature for three days, and then continuously subjected to HPLC analysis. Meanwhile, a portion of fresh 10-320 ppm SnADAM-MeOH solution is prepared each day to serve as calibration standard sample. The SnADAM chromatographic peak retention time (tR), linear least square regression equation, correlation coefficient (r), purity of the test sample, SD, and RSD of the calibration sample were calculated. Referring to Table 5, the linear correlation coefficients of the fresh calibration standards prepared in three days were all greater than 0.9996. After the test sample was stored at room temperature for three days, the SnADAM retention time RSD=0.31%, and the mean purity RSD=0.05%.

[2] = Forced degradation experiment of SnADAM (HPLC); format: physicochemical
Procedure: Three portions of 0.50 mg SnADAM were dissolved in MeOH solvent, respectively added with 1 M HCl solution, 1 M NaOH solution, and 3% H2O2 solution, and then reacted at room temperature for 30 min. The first two portions of solutions were respectively neutralized with 1 M NaOH and 1 M HCl and then added with suitable amounts of MeOH to dissolve the precipitate, while the third portion of solution was directly diluted with a suitable amount of MeOH after the reaction and then subjected to HPLC analysis. Another portion of 0.50 mg SnADAM was heated in an oven at 80° C. for 30 min, dissolved in MeOH solvent, and then subjected to HPLC analysis. […] Therefore, SnADAM can be separated from the impurities (as shown in FIG. 2) and the degradation products (as shown in FIGS. 3A-3D) without interfering with the quantitative results.

Structure (SMILES): CCC[CH2][Sn]([CH2]CCC)([CH2]CCC)[c]1ccc(Sc2ccccc2CN(C)C)c(N)c1 [SnADAM, 2-((2-((Dimethylamino)methyl)phenyl)thio)-5-(tri-n-butyltin)-phenylamine]
- Purity of tested samples ([1]; SnADAM-MeOH solution 15.3 ppm, day 1): 98.17 ± 0.17 (0.18%, n = 3)
- Purity of tested samples ([1]; SnADAM-MeOH solution 15.3 ppm, day 2): 98.12 ± 0.21 (0.21%, n = 3)
- Purity of tested samples ([1]; SnADAM-MeOH solution 15.3 ppm, day 3): 97.96 ± 0.73 (0.74%, n = 3)
- Purity of tested samples ([1]; SnADAM-MeOH solution 153.0 ppm, day 1): 97.12 ± 0.15 (0.15%, n = 3)
- Purity of tested samples ([1]; SnADAM-MeOH solution 153.0 ppm, day 2): 97.00 ± 0.25 (0.26%, n = 3)
- Purity of tested samples ([1]; SnADAM-MeOH solution 153.0 ppm, day 3): 97.12 ± 0.04 (0.04%, n = 3)
- Purity of tested samples ([1]; SnADAM-MeOH solution 306.0 ppm, day 1): 96.77 ± 0.07 (0.07%, n = 3)
- Purity of tested samples ([1]; SnADAM-MeOH solution 306.0 ppm, day 2): 96.73 ± 0.06 (0.06%, n = 3)
- Purity of tested samples ([1]; SnADAM-MeOH solution 306.0 ppm, day 3): 96.70 ± 0.20 (0.20%, n = 3)
- Stability of SnADAM-MeOH solution (change in purity) ([1]; stored at room temperature for three days): no significant change in purity
- Forced degradation ([2]; 1 M HCl solution, room temperature, 30 min): two major degradation products FD1 (tR=1.55 min) and FD2 (tR=1.80 min)
- Forced degradation ([2]; 1 M NaOH solution, room temperature, 30 min): a major degradation product FD1 (tR=1.55 min)
- Forced degradation ([2]; 3% H2O2 solution, room temperature, 30 min): a major degradation product FD1 (tR=1.55 min) having the same retention time as H2O2
- Forced degradation ([2]; heated in an oven at 80° C. for 30 min): little effect on the degradation
